According to US8518443B2, “Opioid agonist formulations with releasable and sequestered antagonist” (Purdue Pharma, L.P., priority 2001, dated 2013):
Where a name gives a salt, the structure may show the parent alone. Read-outs that look alike come from different tables or passages of the source.

Tests used:
[1] = type: in vivo
Excerpt: In certain preferred embodiments, the opioid agonist is hydrocodone or oxycodone.

[2] = following oral administration; cited from earlier work
opioid receptors = settings: daily dosage of 50 mg; cited from earlier work
[3] = after oral doses; cited from earlier work
[4] = cited from earlier work
[5] = in comparison to a 15 mg dose of hydrocodone

Compound	Equianalgesic dose, Calculated Dose [1, 5]	further results
CCC(=O)C(CC(C)N(C)C)(c1ccccc1)c1ccccc1 (stereo not drawn) [Methadone]	9.0 mg	–
O=C1CC[C@@]2(O)[C@H]3Cc4ccc(O)c5c4[C@@]2(CCN3CC2CC2)[C@H]1O5 [naltrexone]	–	oral bioavailability [2]: 5-40%; blockade of the actions of parenterally administered opioids (opioid receptors): adequate clinical blockade; duration of action [3]: ~24 h
COc1ccc2c3c1O[C@H]1[C@@H](O)C=C[C@H]4[C@@H](C2)N(C)CC[C@@]341 [Codeine]	90.0 mg	–
Meperidine	135.0 mg	–
CN1CC[C@]23CCCC[C@H]2[C@H]1Cc1ccc(O)cc13 [Levorphanol]	1.8 mg	–
COc1ccc2c3c1OC1C(=O)CC[C@H]4[C@@H](C2)N(C)CC[C@]314 (stereo partly drawn) [Hydrocodone, 4,5-epoxy-3-methoxy-17-methylmorphinan-6-one]	15.0 mg	–
CN1CC[C@]23c4c5ccc(O)c4O[C@H]2[C@@H](O)C=C[C@H]3[C@H]1C5 [Morphine]	–	Equianalgesic dose, Calculated Dose ([1]; in vivo): 27.0 mg
COc1ccc2c3c1O[C@H]1C(=O)CC[C@@]4(O)[C@@H](C2)N(C)CC[C@]314 [Oxycodone, 4,5-expoxy-14-hydroxy-3-methoxy-17-methylmorphinan-6-one]	13.5 mg	–
C[C@H]1[C@H]2Cc3ccc(O)cc3[C@]1(C)CCN2CC1CC1 [cyclazocine]	–	duration of action [3]: ~24 h
O=C1CC[C@@]2(O)[C@H]3Cc4ccc(O)c5c4[C@@]2(CCN3CC2CC2)[C@H]1O5 [hydrochloride salt of naltrexone]	–	solubility in water [4]: about 100 mg/cc
